Experimental data as given in US20260248763A1 (BIO GENUINE (SHANGHAI) BIOTECH CO., LTD, priority 2023, published 2026).

biological target: T1, OTR (Homo sapiens, UniProt P30559); experiment: Ca2+ mobilization in cells stably expressing OTR (FLIPR, antagonist mode); type: cell-based; conditions: OTR/HEK293 stably transfected cell line
T1 construct: expressed in transfected cells; host or cells: OTR/HEK293 stably transfected cell line
T1 sequence (P30559 1-389): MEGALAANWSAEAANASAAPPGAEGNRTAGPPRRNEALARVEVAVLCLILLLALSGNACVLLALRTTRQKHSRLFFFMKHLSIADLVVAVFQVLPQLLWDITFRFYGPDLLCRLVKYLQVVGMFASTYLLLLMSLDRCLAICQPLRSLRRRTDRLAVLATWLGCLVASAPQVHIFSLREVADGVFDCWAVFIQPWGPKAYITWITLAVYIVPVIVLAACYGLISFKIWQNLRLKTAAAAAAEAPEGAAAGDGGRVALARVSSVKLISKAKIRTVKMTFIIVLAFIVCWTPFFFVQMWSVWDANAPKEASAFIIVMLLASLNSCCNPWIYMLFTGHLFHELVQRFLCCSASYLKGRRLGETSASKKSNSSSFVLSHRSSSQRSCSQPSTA
Source text: Test Example 1. Determination of the Effect of the Compound of the Present Disclosure on Ca^2+ Mobilization in Cells Stably Expressing OTR
To measure the antagonistic effect of the compound of the present disclosure on OTR activity expressed in the OTR/HEK293 stably transfected cell line.
• DMEM medium (Invitrogen, 11965) • F12 medium (Invitrogen, 11765) • Fetal bovine serum (Excell, FSP500) • Geneticin (Invitrogen, 10131) • Penicillin/Streptomycin (Invitrogen, SV30010) • Fluo-4 Direct kit (Invitrogen, F10471) • 384-well cell plate (Greiner, 781090) • 384-well compound plate (Greiner, 781280)
• FLIPR instrument (Molecular Device) • EHCO instrument (Labcyte) • Cell counter (Beckman, Vi-cell XR)
The cultured cells were washed twice with pre-heated DPBS and digested with appropriate amount of trypsin at 37° C. for 1 minute, and then appropriate amount of culture medium was added to terminate digestion. The cells were centrifuged at 1000 rpm for 5 minutes. The supernatant was gently discarded without disturbing the cell pellet at the bottom. The cells were resuspended in culture medium and 1 mL was taken out for cell counting and viability assessment using Vi-CELL™. The cells were diluted to 1×10^6 cells/mL (20,000 cells/20 μL) with culture medium, seeded into a 384-well cell plate and incubated at 37° C. with 5% CO2 for 16-20 h.
Formulation of 250 mM Probenecid solution: according to the kit instructions, 1 mL of FLIPR buffer salt solution was added to 77 mg of probenecid, prepared fresh just before use. Formulation of Fluo-4 Direct™ (2×, 8 μM) loading buffer: according to the kit instructions, the required amount of Fluo-4 Direct™ was taken out and thawed in advance, 10 mL of FLIPR buffer salt solution and 0.2 mL of 250 mM Probenecid solution were added to each tube, and the mixture was vortexed in the dark for >5 minutes, prepared fresh just before use.
Preparation of agonist reference compound plate: the agonist was diluted 3-fold in 10 points using ECHO, and 750 nL was transferred to the corresponding compound plate using ECHO.
Preparation of reference and test compound plates: the test compound was diluted 3-fold in 10 points with ECHO, and 900 nL was transferred to the corresponding compound plate; the reference compound was diluted 3-fold in 10 points with assay buffer salt solution, and 30 μL was transferred to the compound plate.
30 μL of assay buffer salt solution was added to the corresponding compound plate, and the mixture was centrifuged at 1000 rpm for 1 minute.
The cell plate prepared the day before was taken out of the incubator, and 20 μL of 2×Fluo-4 Direct™ buffer was added to each well, with a total volume of 40 μL.
The plate was incubated in an incubator at 37° C. with 5% CO2 for 50 minutes, and then placed at room temperature for 10 minutes.
The compound plate, cell plate, and pipette tips were placed into the instrument.
For the agonist reference compound plate: the FLIPR instrument software was run, 10 μL of the pre-determined concentration of agonist reference compound was added to the cell plate following the preset protocol, and the fluorescence signal was read. After reading, the data were exported to calculate the EC80 for each cell line, and the agonist at 6×EC80 concentration was prepared.
For the compound plate: the FLIPR instrument software was run, 10 μL of the pre-determined concentration of test compound and the reference compound were added to the cell plate following the preset protocol, and the fluorescence signal was read. 10 μL of the reference compound agonist at 6×EC80 concentration was added to the cell plate, and the fluorescence signal was read. For antagonist detection of the compound, the data were exported using the “Max-Min” and “Read 1 to Maximum allowed” methods in the software, and the data were fitted using Prism.

| SMILES | IC50 [nM] |
| --- | --- |
| CO/N=C1\C[C@@H](CO)N(C(=O)c2ccc(-c3cccc(C#N)c3C)cc2OC)C1 [Example A0245] | 58.1 |
| CO/N=C1/CCN(C(=O)c2ccc(-c3cccc(C#N)c3C)cc2)[C@H](CO)C1 [Example A0249, (S,Z)-4′-(2-(Hydroxymethyl)-4-(methoxyimino)piperidine-1-carbonyl)-2-methyl-[1,1′-biphenyl]-3-carbonitrile] | 3060 |
| CO/N=C1/C[C@@H](CO)N(C(=O)c2cnc(-c3cccc(C#N)c3C)cn2)C1 [Example A0251, (S,Z)-3-(5-(2-(Hydroxymethyl)-4-(methoxyimino)pyrrolidine-1-carbonyl)pyrazin-2-yl)-2-methylbenzonitrile] | 363 |
| CO/N=C1\C[C@@H](CNC(C)=O)N(C(=O)c2ccc(-c3ccccc3C)cc2)C1 [Example C0003, (S, E)-N-((4-(Methoxyimino)-1-(2′-methyl-[1,1′-biphenyl]-4-carbonyl)pyrrolidin-2-yl)methyl)acetamide] | 2330 |
| CO/N=C1\C[C@@H](CNC(=O)OC)N(C(=O)c2ccc(-c3ccccc3C)cc2)C1 [Example C0004, Methyl (S, E)-((4-(methoxyimino)-1-(2′-methyl-[1,1′-biphenyl]-4-carbonyl)pyrrolidin-2-yl)methyl)carbamate] | 628 |
| CO/N=C1\C[C@@H](CNC(=O)CO)N(C(=O)c2ccc(-c3ccccc3C)cc2)C1 [Example C0005, (S, E)-2-Hydroxy-N-((4-(methoxyimino)-1-(2′-methyl-[1,1′-biphenyl]-4-carbonyl)pyrrolidin-2-yl)methyl)acetamide] | 1790 |
| CO/N=C1/C[C@@H](CNC(=O)OC)N(C(=O)c2ccc(-c3ccccc3C)cc2)C1 [Example C0007, Methyl (S, Z)-((4-(methoxyimino)-1-(2′-methyl-[1,1′-biphenyl]-4-carbonyl)pyrrolidin-2-yl)methyl)carbamate] | 534 |
| CO/N=C1/C[C@@H](CNC(=O)CO)N(C(=O)c2ccc(-c3ccccc3C)cc2)C1 [Example C0008, (S, Z)-2-Hydroxy-N-((4-(methoxyimino)-1-(2′-methyl-[1,1′-biphenyl]-4-carbonyl)pyrrolidin-2-yl)methyl)acetamide] | 1010 |
| CO/N=C1/C[C@@H](CO)N(C(=O)c2cnc(-c3ccccc3C)cn2)C1 [Example C0013, (S, Z)-(2-(Hydroxymethyl)-4-(methoxyimino)pyrrolidin-1-yl)(5-(o-tolyl)pyrazin-2-yl)methanone] | 853 |
| CO/N=C1/C[C@@H](CO)N(C(=O)c2ccc(-c3ccccc3C)cn2)C1 [Example C0015, (S, Z)-(2-(Hydroxymethyl)-4-(methoxyimino)pyrrolidin-1-yl)(5-(o-tolyl)pyridin-2-yl)methanone] | 888 |
| CO/N=C1\C[C@@H](COCCO)N(C(=O)c2ccc(-c3ccccc3C)cc2)C1 [Example C0018, (S, E)-(2-((2-Hydroxyethoxy)methyl)-4-(methoxyimino)pyrrolidin-1-yl)(2′-methyl-[1,1′-biphenyl]-4-yl)methanone] | 545 |
| CO/N=C1/C[C@@H](CO)N(C(=O)c2cnc(-c3ccccc3C)s2)C1 [Example C0030, (S, Z)-(2-(Hydroxymethyl)-4-(methoxyimino)pyrrolidin-1-yl)(2-(o-tolyl)thiazol-5-yl)methanone] | 1820 |
| CO/N=C1\CN(C(=O)c2ccc(-c3ccccc3C)cc2)[C@@]2(CCNC2=O)C1 [Example C0039, (S, Z)-3-(Methoxyimino)-1-(2′-methyl-[1,1′-biphenyl]-4-carbonyl)-1,7-diazaspiro[4.4]nonan-6-one] | 295 |
| CO/N=C1/C[C@@H](CO)N(C(=O)c2cc(C(F)(F)F)c(-c3cccc(C)c3C)cn2)C1 [Example C0071, (S, Z)-(5-(2,3-Dimethylphenyl)-4-(trifluoromethyl)pyridin-2-yl)(2-(hydroxymethyl)-4-(methoxyimino)pyrrolidin-1-yl)methanone] | 237 |
| CO/N=C1/C[C@@H](CO)N(C(=O)c2cc(=O)n(-c3cccc(C)c3C)cn2)C1 [Example C0077, (S, Z)-3-(2,3-Dimethylphenyl)-6-(2-(hydroxymethyl)-4-(methoxyimino)pyrrolidine-1-carbonyl)pyrimidin-4(3H)-one] | 673 |
| CO/N=C1/C[C@@H](CO)N(C(=O)c2ccc(-c3ccnc(C#N)c3C)cc2)C1 [Example C0091, (S, Z)-4-(4-(2-(Hydroxymethyl)-4-(methoxyimino)pyrrolidine-1-carbonyl)phenyl)-3-methylpicolinonitrile] | 279 |
| CO/N=C1/C[C@@H](CO)N(C(=O)c2ccc(-c3cc(C#N)ccc3C)cc2)C1 [Example C0095, (S, Z)—4′-(2-(Hydroxymethyl)-4-(methoxyimino)pyrrolidine-1-carbonyl)-6-methyl-[1,1′-biphenyl]-3-carbonitrile] | 1260 |

Next, values leading:

| IC50 [nM] | SMILES |
| --- | --- |
| 42.8 | CO/N=C1\C[C@@H](CO)N(C(=O)c2ccc(-c3cccc(C#N)c3C)cc2C)C1 [Example A0244, 3-(4-[(2S,4E)-2-(Hydroxymethyl)-4-(methoxyimino)pyrrolidine-1-carbonyl]-3-methylphenyl)-2-methylbenzonitrile] |
| 57.8 | CO/N=C1\C[C@@H](CO)N(C(=O)c2ccc(-c3cccc(C#N)c3C)c(OC)c2)C1 [Example A0248, (S,E)-4′-(2-(Hydroxymethyl)-4-(methoxyimino)pyrrolidine-1-carbonyl)-2′-methoxy-2-methyl-[1,1′-biphenyl]-3-carbonitrile] |
| 140 | CO/N=C1/C[C@@H](COCCO)N(C(=O)c2ccc(-c3ccccc3C)cc2)C1 [Example C0017, (S, Z)-(2-((2-Hydroxyethoxy)methyl)-4-(methoxyimino)pyrrolidin-1-yl)(2′-methyl-[1,1′-biphenyl]-4-yl)methanone] |
| 115 | CO/N=C1/C[C@@H](CO)N(C(=O)c2ccc(-c3cccc4c3CCC4)cc2)C1 [Example C0051, (S, Z)-(4-(2,3-Dihydro-1H-inden-4-yl)phenyl)(2-(hydroxymethyl)-4-(methoxyimino)pyrrolidin-1-yl)methanone] |
| 82.9 | CO/N=C1\C[C@@H](CO)N(C(=O)c2ccc(-c3cccc(C#N)c3C)cc2)C1 [Example C0057, (S, E)-4′-(2-(Hydroxymethyl)-4-(methoxyimino)pyrrolidine-1-carbonyl)-2-methyl-[1,1′-biphenyl]-3-carbonitrile] |
| 129 | CO/N=C1/C[C@@H](CO)N(C(=O)c2ncc(-c3cccc(C)c3C)cc2OC)C1 [Example C0081, (S, Z)-(5-(2,3-Dimethylphenyl)-3-methoxypyridin-2-yl)(2-(hydroxymethyl)-4-(methoxyimino)pyrrolidin-1-yl)methanone] |
| 161 | CO/N=C1/C[C@@H](CO)N(C(=O)c2ccc(-c3cccc(C)c3C)c(C(F)(F)F)n2)C1 [Example C0085, (S, Z)-(5-(2,3-Dimethylphenyl)-6-(trifluoromethyl)pyridin-2-yl)(2-(hydroxymethyl)-4-(methoxyimino)pyrrolidin-1-yl)methanone] |
| 176 | CO/N=C1/C[C@@H](CO)N(C(=O)c2ncc(-c3cccc(C)c3C)c(C(F)(F)F)n2)C1 [Example C0087, (S, Z)-(5-(2,3-Dimethylphenyl)-4-(trifluoromethyl)pyrimidin-2-yl)(2-(hydroxymethyl)-4-(methoxyimino)pyrrolidin-1-yl)methanone] |
